Consider 63 compounds from ChEMBL document CHEMBL3507680, “University of Dundee, Gates Library screen for HepG2 cell viability”.

Several values for one entry are separate records, joined by “and”; a condition that tells them apart may be missing. Equal values may be shown once.

The nature of the first data set: Human HepG2 cell viability dose-response assay. Format: toxicity, cell-based.
Settings: not given
For `CC(O)CN1CCC(CNCc2c[nH]nc2C(C)(C)C)CC1` (stereo not given), the BOTTOM stood at 0, the HILLSLOPE is given as 0, the TOP amounted to 0 and the pXC50 is given as below 4.53.

With `CCN(CC)c1nc(Nc2cccc(C(C)O)c2)nc2ccccc12` (stereo not given), the BOTTOM was -6.556 and -9.604; the HILLSLOPE is 3.369 and 3.239; the TOP is 95.36 and 94.66; the pXC50 was 5.073 and 5.085.

Take `COc1ccc(C2CCCN2c2nnc(C)s2)c(OC)c1` (stereo not given): the BOTTOM is given as 0, the HILLSLOPE is given as 0, the TOP was 0 and the pXC50 was below 4.53.

Take `CCCn1ncc(-c2ccnc(NC3CC(C)(C)NC(C)(C)C3)n2)c1C`: the BOTTOM is 0, the HILLSLOPE is 0, the TOP was 0 and the pXC50 was below 4.53.

With `CNc1cc(C)nc(NCc2cc(C)cc3c(C)c(C)[nH]c23)n1`, the BOTTOM was -6.522 and -8.24; the HILLSLOPE is 2.624 and 2.705; the TOP is 104.6 and 104.5; the pXC50 is 5.463 and 5.453.

`CN1CCC(c2n[nH]c3ncccc23)C1.O=CO` (stereo not given): the HILLSLOPE is 2.128 and 2.318; the TOP stood at 100; the pXC50 is 4.946 and 4.92.

For `CC(C)(C)c1cn2c(n1)C(CNCc1ccccn1)CCC2` (stereo not given), the BOTTOM is -8.279 and -9.133; the HILLSLOPE is 1.336 and 1.545; the TOP was 100 and 90.93; the pXC50 was 5.194 and 5.33.

For the compound `CCc1[nH]c2c(CNc3nc(C)cc(NC)n3)cc(C)cc2c1C`, the BOTTOM is -3.977 and -5.003; the HILLSLOPE was 3.393 and 3.303; the TOP was 104.5 and 105; the pXC50 is 5.219 and 5.191.

Consider `C/N=C1\c2cc3cc(OC)ccc3n2CCN1Cc1ccccc1.O=C(O)C(F)(F)F`, for which the BOTTOM is -10.9 and -4.699; the HILLSLOPE was 1.421 and 1.435; the TOP came out at 100; the pXC50 was 5.16 and 5.151.

Turning to `COCc1cc(N(C)Cc2c(C)nn(C)c2C)n2nccc2n1`, the BOTTOM is recorded as 0, the HILLSLOPE was determined as 0, the TOP came to 0 and the pXC50 is listed as below 4.53.

In turn, `COCCN1CCN(Cc2cccc(C(N)=O)c2)CC1C` (stereo not given) displayed a BOTTOM of 0, an HILLSLOPE of 0, a TOP of 0 and a pXC50 below 4.53.

As for `COCCn1c2c(ccc1=O)CC(NCc1cnn(C)c1)CC2` (stereo not given), the BOTTOM came out at 0, the HILLSLOPE is 0, the TOP was found to be 0 and the pXC50 is below 4.53.

Compound `Cc1cnc(C(=O)N2CCCC(n3ccnc3C)C2)cn1` (stereo not given) showed a BOTTOM of 0, an HILLSLOPE of 0, a TOP of 0 and a pXC50 below 4.53.

Regarding `Cl.Clc1cccc(N[C@H]2CCCN[C@H]2Cc2ccccc2)c1`, the BOTTOM was 3.022 and 5.09; the HILLSLOPE was 10.78 and 7.141; the TOP was 102.1 and 102.6; the pXC50 is 5.327 and 5.334.

Consider `O=C(Cn1cnc2ccccc2c1=O)Nc1cc(C2CC2)n[nH]1`, for which the BOTTOM was -7.289 and -9.306; the HILLSLOPE was 2.407 and 2.226; the TOP was 101 and 100.4; the pXC50 is 6.137 and 6.176.

As to `COc1ccc(OCCN2CCC(N3CCNC3=O)CC2)cc1`, the HILLSLOPE was 1.006 and 1.131; the TOP is 99.89 and 100; the pXC50 was 4.882 and 4.993.

Take `CCS(=O)(=O)N1CCc2ccc(NC(=O)Nc3ccc(F)cc3F)cc21`: the BOTTOM is -8.818 and -13.27; the HILLSLOPE is 1.034 and 0.9987; the TOP was 101.1 and 100; the pXC50 was 4.643 and 4.737.

For the compound `CCCNc1cc(-c2c[nH]nc2C2CCN(C(=O)C3CCC3)C2)ccn1` (stereo not given), the HILLSLOPE is 3.782 and 3.402; the TOP is 97.22 and 96.9; the pXC50 is 6.441 and 6.523.

Compound `Cc1cc(NC(=O)CN2CCn3c(nnc3C(C)C)C2)no1` showed a BOTTOM of 0, an HILLSLOPE of 0, a TOP of 0 and a pXC50 below 4.53.

For `CC(C)(C)c1cn2c(n1)C(CNCc1cnn3ccccc13)CCC2` (stereo not given), the BOTTOM is -11.51 and -11.88; the HILLSLOPE was 1.1 and 1.076; the TOP turned out to be 100; the pXC50 was 5.268 and 5.282.

The nature of the next data set: Human HepG2 cell viability assay in 384 well format. Format: toxicity, cell-based. The note with it: HepG2 cells, read-out: Inhibition. Also noted: dose 125 nL, time 70.5 hour; cytotoxicity at 70.5 h: concentration not given beside the values.
Regarding `CC(O)CN1CCC(CNCc2c[nH]nc2C(C)(C)C)CC1` (stereo not given), the cytotoxicity at 70.5 h amounted to 70.3%.

In the case of `CCN(CC)c1nc(Nc2cccc(C(C)O)c2)nc2ccccc12` (stereo not given), the cytotoxicity at 70.5 h was found to be 65%.

As for `COc1ccc(C2CCCN2c2nnc(C)s2)c(OC)c1` (stereo not given), the cytotoxicity at 70.5 h is 64.4%.

Turning to `CCCn1ncc(-c2ccnc(NC3CC(C)(C)NC(C)(C)C3)n2)c1C`, the cytotoxicity at 70.5 h came to 80.1%.

`CNc1cc(C)nc(NCc2cc(C)cc3c(C)c(C)[nH]c23)n1`: the cytotoxicity at 70.5 h stood at 67.2%.

`CN1CCC(c2n[nH]c3ncccc23)C1.O=CO` (stereo not given): the cytotoxicity at 70.5 h is 81.6%.

As for `CC(C)(C)c1cn2c(n1)C(CNCc1ccccn1)CCC2` (stereo not given), the cytotoxicity at 70.5 h worked out at 70.8%.

In the case of `CCc1[nH]c2c(CNc3nc(C)cc(NC)n3)cc(C)cc2c1C`, the cytotoxicity at 70.5 h amounted to 99.9%.

On to `C/N=C1\c2cc3cc(OC)ccc3n2CCN1Cc1ccccc1.O=C(O)C(F)(F)F`, for which the cytotoxicity at 70.5 h worked out at 68.5%.

Take `COCc1cc(N(C)Cc2c(C)nn(C)c2C)n2nccc2n1`: the cytotoxicity at 70.5 h was 64.9%.

`COCCN1CCN(Cc2cccc(C(N)=O)c2)CC1C` (stereo not given): the cytotoxicity at 70.5 h came to 71.2%.

Turning to `COCCn1c2c(ccc1=O)CC(NCc1cnn(C)c1)CC2` (stereo not given), the cytotoxicity at 70.5 h was determined as 101%.

Consider `Cc1cnc(C(=O)N2CCCC(n3ccnc3C)C2)cn1` (stereo not given), for which the cytotoxicity at 70.5 h came to 61.9%.

On to `Cl.Clc1cccc(N[C@H]2CCCN[C@H]2Cc2ccccc2)c1`, for which the cytotoxicity at 70.5 h was 104%.

On to `O=C(Cn1cnc2ccccc2c1=O)Nc1cc(C2CC2)n[nH]1`, for which the cytotoxicity at 70.5 h was 107%.

Consider `COc1ccc(OCCN2CCC(N3CCNC3=O)CC2)cc1`, for which the cytotoxicity at 70.5 h was 80.5%.

For the compound `CCS(=O)(=O)N1CCc2ccc(NC(=O)Nc3ccc(F)cc3F)cc21`, the cytotoxicity at 70.5 h amounted to 61%.

In the case of `CCCNc1cc(-c2c[nH]nc2C2CCN(C(=O)C3CCC3)C2)ccn1` (stereo not given), the cytotoxicity at 70.5 h was determined as 96.6%.

Regarding `Cc1cc(NC(=O)CN2CCn3c(nnc3C(C)C)C2)no1`, the cytotoxicity at 70.5 h was 67.5%.

On to `CC(C)(C)c1cn2c(n1)C(CNCc1cnn3ccccc13)CCC2` (stereo not given), for which the cytotoxicity at 70.5 h worked out at 71.2%.

With `CCOc1ccc(CNC(C)c2cccc(S(=O)(=O)NC)c2)cc1` (stereo not given), the cytotoxicity at 70.5 h is -9.92%.

Turning to `Cc1ccc(S(N)(=O)=O)cc1C(=O)NC1CCCC1`, the cytotoxicity at 70.5 h is -1.13%.

`COc1ccc(-c2nccn2C[C@@H]2CCCN3CCCC[C@H]23)cc1`: the cytotoxicity at 70.5 h was 1.3%.

As to `c1ccc2[nH]c(C3CCN(Cc4nnc(C5CC5)o4)CC3)cc2c1`, the cytotoxicity at 70.5 h is -12.6%.

Regarding `COCC1CN(c2ccc3c(Cl)ccnc3c2F)CCO1` (stereo not given), the cytotoxicity at 70.5 h was found to be 20.2%.

Consider `O=C(NCc1cccnc1)C1=NN(c2ccccc2)C(=O)CN1`, for which the cytotoxicity at 70.5 h was -13.9%.

Regarding `COc1cccc(NC(=O)NC(C)c2ccc3c(c2)CC(=O)N3)c1` (stereo not given), the cytotoxicity at 70.5 h is -3.09%.

With `CCN1CCCC(O)(CNCc2ccccc2F)C1` (stereo not given), the cytotoxicity at 70.5 h came out at 12.4%.

In the case of `CNc1cc(N2CCCC2CNCc2ccc(C)o2)ncn1` (stereo not given), the cytotoxicity at 70.5 h turned out to be 5.47%.

Take `CCN(Cc1cnn(CC)c1)C(=O)CN1C(=O)CCc2ccccc21`: the cytotoxicity at 70.5 h is -4.74%.

As for `CN(C)C(=O)CN1CCN(C(=O)c2cnn(-c3ccccc3Cl)c2)CC1`, the cytotoxicity at 70.5 h is -13.6%.

With `CN(C)C(=O)C1CCN(C(=O)c2c[nH]c3cc(Cl)ccc23)CC1`, the cytotoxicity at 70.5 h was -8.29%.

Turning to `CCN(C)C1COC2(CCN(C(=O)c3ccc(Cl)cc3)CC2)C1` (stereo not given), the cytotoxicity at 70.5 h is -9.04%.

On to `C[C@H]1C(=O)NC[C@H]2CN(Cc3cccc(F)c3)C[C@H]21`, for which the cytotoxicity at 70.5 h is -8.78%.

On to `CCOc1cc(C)nc(N2CCN(C(C)c3nc(C)no3)CC2)n1` (stereo not given), for which the cytotoxicity at 70.5 h is -1.64%.

As for `O=C(N[C@@H]1CN(CC2CC2)[C@@H]2CCCO[C@@H]21)c1cscn1`, the cytotoxicity at 70.5 h was -1.52%.

As to `COc1ccc(CNC(=O)N2CCC(Cc3cnn(C)c3)C2)cc1C` (stereo not given), the cytotoxicity at 70.5 h is -3.46%.

Turning to `O=C(c1cccnc1O)N(Cc1ccsc1)CC1CCCO1` (stereo not given), the cytotoxicity at 70.5 h came to 8.65%.

For `O=C(c1ccsc1)N1C[C@H]2CCC[C@@]2(COCc2cccnc2)C1`, the cytotoxicity at 70.5 h was determined as 22.5%.

For `COCc1noc(CCNc2nc(CC3CC3)nc3c2CCNCC3)n1`, the cytotoxicity at 70.5 h stood at 8.9%.

Turning to `CCOCCCNC(=O)c1cc(C)nc(N2CCCC2)n1`, the cytotoxicity at 70.5 h was 21.7%.

With `CCOC(=O)NC(CNC(=O)CCc1ccccn1)CC(C)C` (stereo not given), the cytotoxicity at 70.5 h was -8.82%.

`O=C(C1CC1)N1CC2(CCNCC2)C1`: the cytotoxicity at 70.5 h was -8.48%.

Regarding `CC(=O)CSc1nnc2n1N=CN(c1cccc(Cl)c1)C2`, the cytotoxicity at 70.5 h was -8.9%.

Regarding `CC(C)(N)C(=O)N1CCCC1c1cncc(Oc2ccc(F)cc2)n1` (stereo not given), the cytotoxicity at 70.5 h turned out to be 0.148%.

With `Cc1ccc(CN2C[C@@H](C(=O)Nc3cccnc3)C[C@H]3OCC[C@H]32)o1`, the cytotoxicity at 70.5 h was determined as 21.9%.

As to `CNC(=O)C1Cc2ccccc2CN1CCCc1ccccc1` (stereo not given), the cytotoxicity at 70.5 h is -4.46%.

For `Cc1ncsc1C(=O)NCc1cccs1`, the cytotoxicity at 70.5 h is -16.4%.

As for `Cc1noc(C)c1-c1cncc(CC2CCN(C(=O)c3cc[nH]n3)C2)n1` (stereo not given), the cytotoxicity at 70.5 h was -4.86%.

Take `COCCNC(=O)[C@@H]1CC[C@@H]2[C@@H](CCN2Cc2cnn(C)c2)O1`: the cytotoxicity at 70.5 h is -18.7%.

On to `CCc1ncc2c(n1)CN(Cc1nnc(CC)o1)CC2`, for which the cytotoxicity at 70.5 h is -79.4%.

Turning to `O=c1[nH]nc(CCCN2CCOCC2)n1-c1ccc(F)cc1F`, the cytotoxicity at 70.5 h worked out at 24.5%.

For `CCCN(C(=O)c1cc2c([nH]c1=O)CCCC2=O)C1CCCCC1`, the cytotoxicity at 70.5 h is 27.9%.

Regarding `CN(C)CCN(C)S(=O)(=O)CC1CCOCC1`, the cytotoxicity at 70.5 h is -7.41%.

Consider `COc1ccc(CC(=O)NCCCc2nnc3nc(C)cc(C)n23)cc1`, for which the cytotoxicity at 70.5 h was -10.1%.

Regarding `O=C1CC2(CCN(Cc3cccs3)C2)CN1c1cccc(F)c1` (stereo not given), the cytotoxicity at 70.5 h is -11%.

With `Fc1ccc(-c2nccnc2C2CCCNC2)cc1` (stereo not given), the cytotoxicity at 70.5 h is -3.79%.

Take `CN(C)C(=O)CN1CCOCC2(CCN(CC3CCOCC3)CC2)C1`: the cytotoxicity at 70.5 h was -7.63%.

Take `CCOCCNC(=O)c1cc(COc2cncc(Cl)c2)on1`: the cytotoxicity at 70.5 h was -0.86%.

`CCOCC1CCN(C(=O)C(c2c(F)cccc2F)N(C)C)CC1` (stereo not given): the cytotoxicity at 70.5 h came out at 0.534%.

With `Cc1nc2c(c(C)c1CC(=O)Nc1ccc(Cl)cc1)c(=O)[nH]n2C`, the cytotoxicity at 70.5 h is -3.48%.

As to `Cc1ccc(NC(=O)CN2CCCNC2=O)c(SC(F)(F)F)c1`, the cytotoxicity at 70.5 h is -7.48%.

Consider `Cc1nc(NCCC23CCCN2CCC3)cc(C2CCCNC2)n1` (stereo not given), for which the cytotoxicity at 70.5 h is -3.41%.
